Laboratory results taken from US5723165A, “Aspartyldipeptide derivatives and sweetener compositions containing the same” (Ajinomoto Co., Inc., priority 1994, dated 1998).

Columns and labels:
[1] = Stability (survival rate) in acidic aqueous solution by HPLC; conditions: pH 3, 80° C., 7 hours, comparative compound = α-L-aspartyl-D-α-aminobutyric acid (S)-α-ethylbenzylamide
Description: With respect to stability in an acidic aqueous solution, the percentage (survival rate) of the compound still surviving in an acidic aqueous solution having a pH of 3 at 80° C. for 7 hours by HPLC was measured.

[2] = Sensory evaluation of sweetness potency relative to sugar; conditions: for Sweetness Potency: Table 1, based on an aqueous solution of 4% sucrose having a sweetness potency of 1 (one); for sweetness potency value: sensory evaluation, running text
ICR male mice = conditions: oral administration of 2.0 g/kg once

With CC[C@H](NC(=O)C1(NC(=O)[C@@H](N)CC(=O)O)CCCC1)c1ccccc1 [Example 6, α-L-aspartyl-α-aminocyclopentanecarboxylic acid (S)-α-ethylbenzylamide] the “stability (survival rate in an acidic aqueous solution) relative to comparative compound” value [1] was “about 10 times that of the comparative”, the “Sweetness Potency” value [2] was 1000 and the sweetness potency value [2] was 1000 times that of sugar.
In the case of CCC(NC(=O)C(CC(C)C)NC(=O)C(N)CC(=O)O)c1ccccc1 [D-Leu (S) Et Ph], the “Sweetness Potency” value [2] was 100.
With COC[C@H](NC(=O)[C@H](NC(=O)[C@@H](N)CC(=O)O)[C@H](C)O)c1ccccc1 [Example 2, α-L-aspartyl-D-threonine (R)-α-methoxymethylbenzylamide] the “Sweetness Potency” value [2] was 500 and the sweetness potency value [2] was 500 times that of sugar.
For CC[C@@H](NC(=O)[C@@H](N)CC(=O)O)C(=O)N[C@@H](COC)c1ccccc1 [α-L-aspartyl-D-α-aminobutyric acid (R)-α-methoxymethylbenzyl], the sweetness potency value [2] was “about 1200 times that of sugar”.
In the case of CCC(NC(=O)C(NC(=O)C(N)CC(=O)O)C(C)OC)c1ccccc1 [D-Thr(Me) (S) Et Ph], the “Sweetness Potency” value [2] was 150.
For CCC(NC(=O)C(NC(=O)C(N)CC(=O)O)C(C)CC)c1ccccc1 [D-allo-Ile (S) Et Ph], the “Sweetness Potency” value [2] was 90.
With CC[C@H](NC(=O)[C@H](NC(=O)[C@@H](N)CC(=O)O)[C@H](C)CC)c1ccccc1 [Example 3, α-L-aspartyl-D-isoleucine (S)-α-ethylbenzylamide] the “Sweetness Potency” value [2] was 500 and the sweetness potency value [2] was 500 times that of sugar.
With CC[C@H](NC(=O)C(NC(=O)[C@@H](N)CC(=O)O)c1ccco1)c1ccccc1 (mixture of isomers) the toxicity (ICR male mice) was “no problematic toxicity”.
In the case of CC[C@H](NC(=O)C1(NC(=O)[C@@H](N)CC(=O)O)CCCC1)c1ccccc1 [α-L-aspartyl-α-aminocyclopentanecarboxylic acid (S)-α-ethylb], the “stability (survival rate in an acidic aqueous solution) relative to comparative compound” value [1] was “about 10 times that of the comparative compound” and the sweetness potency value [2] was “about 1000 times that of sugar”.
With COC[C@H](NC(=O)[C@H](NC(=O)[C@@H](N)CC(=O)O)C(C)C)c1ccccc1 [α-L-aspartyl-D-valine (R)-α-methoxymethylbenzylamide] the toxicity (ICR male mice) was “no problematic toxicity” and the sweetness potency value [2] was “about 1300 times that of sugar”.
With COC[C@H](NC(=O)[C@H](NC(=O)[C@@H](N)CC(=O)O)C(C)C)C(C)C [Example 19, α-L-aspartyl-D-valine (R)-α-methoxymethyl-β-methylpropylamide] the “Sweetness Potency” value [2] was 30 and the sweetness potency value [2] was 30 times that of sugar.
For CC[C@H](NC(=O)[C@H](NC(=O)[C@@H](N)CC(=O)O)[C@H](C)O)c1ccccc1 [Example 1, α-L-aspartyl-D-threonine (S)-α-ethylbenzylamide], the toxicity (ICR male mice) was “no problematic toxicity”, the “Sweetness Potency” value [2] was 1300 and the sweetness potency value [2] was 1300 times that of sugar. The sweetness potency value ([2]; listed as α-L-aspartyl-D-threonine(S)-α-ethylbenzylamide) was “about 1300 times that of sugar”.
For CC[C@H](NC(=O)C1(NC(=O)[C@@H](N)CC(=O)O)CCCCC1)c1ccccc1 [α-L-aspartyl-α-aminocyclohexanecarboxylic acid (S)-α-ethylbe], the “stability (survival rate in an acidic aqueous solution) relative to comparative compound” value [1] was “about 9 times that of the comparative compound”, the toxicity (ICR male mice) was “no problematic toxicity” and the sweetness potency value [2] was “about 1000 times that of sugar”.
In the case of COC[C@H](NC(=O)[C@@H](C)NC(=O)[C@@H](N)CC(=O)O)c1ccccc1 [Example 18, α-L-aspartyl-D-alanine (R)-α-methoxymethylbenzylamide], the “Sweetness Potency” value [2] was 300 and the sweetness potency value [2] was 300 times that of sugar.
With CC[C@H](NC(=O)C(C)(CC)NC(=O)[C@@H](N)CC(=O)O)c1ccccc1 (mixture of isomers) [Example 10, α-L-aspartyl-DL-isovaline (S)-α-ethylbenzylamide] the “Sweetness Potency” value [2] was 100 and the sweetness potency value [2] was 100 times that of sugar.
For CC[C@H](NC(=O)C(NC(=O)[C@@H](N)CC(=O)O)c1ccco1)c1ccccc1 (mixture of isomers) [Example 4, α-L-aspartyl-DL-furylglycine (S)-α-ethylbenzylamide], the “Sweetness Potency” value [2] was 1200, the sweetness potency value [2] was 1200 times that of sugar and the sweetness potency value ([2]; listed as α-L-aspartyl-DL-furylglycine(S)-α-ethylbenzylamide) was “about 1200 times that of sugar”.
With COC[C@H](NC(=O)C(NC(=O)[C@@H](N)CC(=O)O)c1ccco1)c1ccccc1 (mixture of isomers) [α-L-aspartyl-DL-furylglycine (R)-α-methoxymethylbenzylamide] the toxicity (ICR male mice) was “no problematic toxicity” and the sweetness potency value [2] was “about 1200 times that of sugar”.
With CCOC[C@H](NC(=O)[C@H](NC(=O)[C@@H](N)CC(=O)O)C(C)C)c1ccccc1 [Example 15, α-L-aspartyl-D-valine (R)-α-ethoxymethylbenzylamide] the “Sweetness Potency” value [2] was 500 and the sweetness potency value [2] was 500 times that of sugar.
With COC[C@@H](NC(=O)[C@H](NC(=O)[C@@H](N)CC(=O)O)C(C)C)C(C)C [Example 14, α-L-aspartyl-D-valine (S)-α-methoxymethyl-β-methylpropylamide] the “Sweetness Potency” value [2] was 40 and the sweetness potency value [2] was 40 times that of sugar.
For CC[C@H](NC(=O)C1(NC(=O)[C@@H](N)CC(=O)O)CCCCC1)c1ccccc1 [Example 7, α-L-aspartyl-α-aminocyclohexanecarboxylic acid (S)-α-ethylbenzylamide], the “stability (survival rate in an acidic aqueous solution) relative to comparative compound” value [1] was “about 9 times that of the comparative”, the “Sweetness Potency” value [2] was 1000 and the sweetness potency value [2] was 1000 times that of sugar.
In the case of COC[C@@H](NC(=O)[C@H](NC(=O)[C@@H](N)CC(=O)O)C(C)C)c1ccccc1 [Example 20, α-L-aspartyl-D-valine (S)-α-methoxymethylbenzylamide], the “Sweetness Potency” value [2] was under 20 and the sweetness potency value [2] was “not more than 20 times that of sugar”.
For CC[C@@H](C)[C@@H](NC(=O)[C@@H](N)CC(=O)O)C(=O)N[C@@H](COC)c1ccccc1 [Example 17, α-L-aspartyl-D-isoleucine (R)-α-methoxymethylbenzylamide], the “Sweetness Potency” value [2] was 500 and the sweetness potency value [2] was 500 times that of sugar.
For CC[C@H](NC(=O)C(CC)(CC)NC(=O)[C@@H](N)CC(=O)O)c1ccccc1 [Example 9, α-L-aspartyl-α,α-diethylglycine (S)-α-ethylbenzylamide], the “Sweetness Potency” value [2] was 200 and the sweetness potency value [2] was 1000 times that of sugar.
In the case of COC[C@H](NC(=O)C(NC(=O)[C@@H](N)CC(=O)O)c1ccco1)c1ccccc1 (mixture of isomers) [Example 5, α-L-aspartyl-DL-furylglycine (R)-α-methoxymethylbenzylamide], the “Sweetness Potency” value [2] was 1200 and the sweetness potency value [2] was 1200 times that of sugar.
For COC[C@H](NC(=O)C1(NC(=O)[C@@H](N)CC(=O)O)CCCCC1)c1ccccc1 [Example 13, α-L-aspartyl-α-aminocyclohexanecarboxylic acid (R)-α-methoxymethylbenzylamide], the “Sweetness Potency” value [2] was 250 and the sweetness potency value [2] was 250 times that of sugar.
With CC[C@@H](NC(=O)[C@@H](N)CC(=O)O)C(=O)N[C@@H](COC)c1ccccc1 [Example 16, α-L-aspartyl-D-α-aminobutyric acid (R)-α-methoxymethylbenzylamide] the “Sweetness Potency” value [2] was 1200 and the sweetness potency value [2] was 1200 times that of sugar.
In the case of COC[C@H](NC(=O)[C@H](NC(=O)[C@@H](N)CC(=O)O)C(C)C)c1ccccc1 [Example 11, α-L-aspartyl-D-valine (R)-α-methoxymethylbenzylamide], the “Sweetness Potency” value [2] was 1300 and the sweetness potency value [2] was 1300 times that of sugar.
In the case of COC[C@H](NC(=O)[C@H](NC(=O)[C@@H](N)CC(=O)O)c1ccccc1)c1ccccc1 [Example 12, α-L-aspartyl-D-phenylglycine (R)-α-methoxymethylbenzylamide], the “Sweetness Potency” value [2] was 500 and the sweetness potency value [2] was 500 times that of sugar.
